Measured values published in patent publication US20130142784A1 (The Board of Trustees of the University of Illinois, priority 2010, published 2013).
Ends that are not written are not given here.

Assays:
[1] = system: hepatocellular carcinoma cells; settings: mouse; cited from earlier work
[2] = system: SKBR3-pBabe and FoxM1 cells; experiment: surviving cells after ARF-peptide added to HERCEPTIN, paclitaxel or combination; format: cell-based, human
Procedure: (§1) FIGS. 6A and 6B are graphs showing quantitative colony forming assay of parental or resistant SKBR3 and MDA-MB-453 cells treated with either ARF-peptide or mutant peptide (2 μM). […] Also shown below the graphs are images of representative wells of cells from such colony-forming assays.
The ability of the ARF-peptide to sensitize FoxM1-expressing cells to treatment was also investigated.

SKBR3 resistant cells [3] = experiment: colony forming assay, ARF-derived peptide and trastuzumab; format: cell-based, human; settings: with trastuzumab; peptide 2 μM
Procedure: as §1
(§2) The cells were maintained in HERCEPTIN thereafter. […] Quantification was done using Adobe Photoshop.
(§3) Studies have shown that FoxM1 is inhibited by a small peptide that contains a 19-amino acid region of the p19ARF protein (residues 26 to 44) (SEQ ID NO:2). […] Treatment with the ARF-derived peptide and trastuzumab led to a 90% reduction in cell numbers in both SKBR3 and MDA-MB-453 resistant cells as measured by colony forming assays (following the same protocol as described above in Example 5) (FIG. 6A).

[4] = system: MDA-MB-453 resistant cells; experiment: as above; format: cell-based, human; settings: with trastuzumab; peptide 2 μM
Procedure: as §1, §2, §3

GATA-3 promoter [5] = experiment: ChIP assay, Rb binding; format: cell-based, human; settings: compared with control siRNA
Procedure: (§4) The mouse GATA-3 promoter contains three FoxM1 consensus sequences within 2 kb of the transcriptional start site. Whether FoxM1 directly regulated GATA-3 at the RNA level was investigated using chromatin immunoprecipitation (ChIP) assay. Cells were fixed in 1% formaldehyde for 10 minutes to allow crosslinking and then quenched with […] glycine. For in vivo ChIP assays, single cell suspensions were generated using collagenase/hyaluronidase followed by fixing. Cells were collected and lysed in SDS lysis buffer (1% SDS, 10 mM EDTA, 50 mM Tris pH 8, protease and phosphatase inhibitors). Lysate was sonicated, pre-cleared, and incubated with antibodies against GFP (Clontech, JL-8), GATA-3 (Santa Cruz HG3-31), FoxM1 (Major et al., 2004, “Forkhead box M1B transcriptional activity requires binding of Cdk-cyclin complexes for phosphorylation-dependent recruitment of p300/CBP coactivators” Mol Cell Biol 24: 2649-61), DNMT3b (Imgenex 52A1018), or Rb (Cell Signaling, 4H1) followed by purification with Protein-A and Protein-G Sepharose beads in the presence of salmon sperm DNA (Upstate). Beads were washed and DNA extracted using a PCR purification kit (Qiagen). PCR products were visualized by gel electrophoresis or analyzed using SYBR Green (Bio-Rad), normalized to the IgG control (Santa Cruz Biotechnology).

GATA-3 promoter [6] = experiment: ChIP assay, DNMT3b binding; format: cell-based, human; settings: compared with control siRNA
Procedure: as §4
DNMT3b has been specifically implicated in mammary tumor biology. […]

SKBR3 resistant cells [7] = experiment: cell number after FoxM1 siRNA knockdown and HERCEPTIN; format: cell-based, human; settings: in conjunction with HERCEPTIN
Procedure: The source of resistance in these lines was not uniform, as an increase in phosphorylated Akt was only observed in SKBR3 cells. FoxM1 levels in parental and resistant lines were assayed by western blot analysis. Extracts were prepared in lysis buffer containing 1 mM EDTA, 0.15M NaCl, 0.05M Tris-HCl pH 7.5, and 0.5% Triton-X. Phosphatate Inhibitor Cocktail Set II (Calbiochem) and protease inhibitor (Roche) were added before each experiment using the rabbit polyclonal antibody referenced above. Quantification was performed using Image J software (NIH).
Additionally, levels of cell cycle regulators, Polo-like Kinase 1 (1.5-fold) and Cyclin B1 (16.6-fold) were amplified in the resistant line as compared to the parental control line (FIG. 3B). GAPDH is used as a loading control to ensure that the same amount of RNA was added to each reaction. All bands are normalized to GAPDH bands from the same sample and then normalized values from parental and resistant cells can be compared. […] The control (5′ […] 3′, SEQ ID NO:12) and FoxM1 targeting siRNA (5′ […] 3′, SEQ ID NO:9) were both from Dharmacon, and purified using standard desalting methods. Prior to transfection, plates are washed and cells are placed in serum-free media. siRNA was added to a final concentration of 7.5 pm to each plate using Lipofectamine 2000 (Invitrogen) transfection. […]

[8] = system: polymerized and soluble tubulin fractions of SKBR3-pBabe and SKBR3-FoxM1 expressing lines; experiment: polymerized vs soluble tubulin fractionation and western blot; format: cell-based, human
Procedure: In addition, the possibility that FoxM1 induced altered microtubule dynamics was investigated. Paclitaxel has been known to stabilize tubulin, and thus the ratio of polymerized to soluble microtubule fractions was compared. Cell lysates of SKBR3-pBabe and SKBR3-FoxM1 expressing lines untreated or treated with paclitaxel were fractionated to obtain polymerized and soluble tubulin fractions. […] Briefly, cells were seeded at 80% confluency in 24-well plates, collected in hypotonic buffer (1 mM MgCl2, 2 mM EGTA, 0.5% Nonidet P-40, 20 mM Tris-HCl pH 6.8) and centrifuged for 10 minutes at room temperature (14,000 rpm). The supernatant was used as the soluble fraction while the pellet was used as the polymerized fraction.

[9] = system: cells with HER2/ErbB2 amplification; settings: on average; cited from earlier work
SKBR3 cells = experiment: cell viability, CellTiter-Glo Luminescent assay, paclitaxel; format: cell-based, human; settings: for IC50: Homo sapiens, TAXOL 24 hours; for cells survived: 0.1 μM, seven days
Procedure: After seven days of treatment in a low dose of paclitaxel (TAXOL) (0.1 μM), only 25% of SKBR3-pBabe cells survived, while nearly 50% of SKBR3-FoxM1 cells survived (FIG. 4A).

[10] = FoxM1-expressing cells, with HERCEPTIN and paclitaxel combination treatment

In the case of “ARF-derived peptide: cell-penetrating peptide inhibitor of FoxM1 containing a 19-amino acid region of the p19ARF protein (residues 26 to 44) (KFVRSRRPRTASCALAFVN; not fully specified; UniProt Q64364 26-44, looked up, fragment)”, the “proliferation and apoptosis of hepatocellular carcinoma cells in vivo” value [1] is given as “reduce proliferation and induce apoptosis”, the cell killing [2, 10] is given as “more than 97%” and the cells surviving [2, 10] is given as “less than 3%”. The “cell number compared to mutant peptide” value ([2]; added to HERCEPTIN, paclitaxel, or combination treatment, three days) was “dramatic reduction in cell number”, the “cell killing at the same dosage compared to mutant peptide” value ([2]; pBabe cells, all treatments) was “greater cell killing” and the “reduction in cell numbers” value (SKBR3 resistant cells [3]) was 90%. The “reduction in cell numbers” value [4] was 90%.

In the case of “5′ GGACCACUUUCCCUACUUUUU 3′ (listed as RNA, chemistry not given here) [FoxM1 targeting siRNA]”, the “Rb binding to GATA-3 promoter” value (GATA-3 promoter [5]) is reported as “could not bind to the GATA-3 promoter”, the “DNMT3b binding to GATA-3 promoter at −747 and −1431” value (GATA-3 promoter [6]) is reported as “significantly decreased” and the “reduction in cell number” value (SKBR3 resistant cells [7]) is reported as “more than 75%”.

For `CC(=O)O[C@H]1C(=O)[C@@]2(C)[C@H]([C@H](OC(=O)c3ccccc3)[C@]3(O)C[C@H](OC(=O)[C@H](O)[C@@H](NC(=O)c4ccccc4)c4ccccc4)C(C)=C1C3(C)C)[C@]1(OC(C)=O)CO[C@@H]1C[C@@H]2O` [paclitaxel], the “ratio for β-tubulin” value ([8]; FoxM1-expressing cells after paclitaxel treatment) is listed as “did not show a significant change”, the “α- and β-tubulin distribution” value ([8]; SKBR3-pBabe cells after paclitaxel treatment) is listed as “dramatic shift towards the polymerized fraction” and the “higher dose required to produce the same effect” value [9] is listed as 100 fold. For the same molecule, the IC50 (SKBR3 cells; SK-BR-3, SKBR3 cells transfected with FoxM1-specific siRNA 72 hours) was 10 nM, the IC50 (SKBR3 cells; SK-BR-3, SKBR3 cells transfected with control siRNA 72 hours) was 60 nM and the cells survived (SKBR3 cells; SKBR3-FoxM1 cells) was ~50%. For the same molecule, the cells survived (SKBR3 cells; SKBR3-pBabe cells) was 25%.
